According to PubChem BioAssay AID424 (Public Access to Neuroactive & Anticonvulsant Chemical …, 2006):

Columns and labels:
[1] = anticonvulsant potency and neurotoxicity in rodents, summary, in vivo study, quantitative, MES, scMET, kindled rat, Frings mice (AID 424)
[2] = test system: mouse i.p. maximal electroshock seizure protection, ED50; assay: as above
[3] = measured here: kindled rat ED50

SMILES | TD50 ([1]; i.p. mouse neurotoxicity TD50) | ED50 ([1]; i.p. mouse scBic ED50) | ED50 ([1]; i.p. mouse scMET ED50) | ED50 ([1]; i.p. mouse scPic ED50) | ED50 ([1]; oral mouse MES ED50) | ED50 ([1]; oral mouse scMET ED50) | ED50 ([1]; oral rat MES ED50) | ED50 ([1]; oral rat scMET ED50) | TD50 ([1]; oral rat toxicity TD50) | ED50 [2] | ED50 ([1]; Frings audiogenic mouse ED50) | ED50 ([1]; i.p. rat MES ED50) | ED50 [2, 3]
CCN(CC)CC(=O)Nc1c(C)cccc1C | 65.1 mg/kg | > 70 mg/kg | > 66 mg/kg | > 70 mg/kg | 21 mg/kg | > 140 mg/kg | 31.2 mg/kg | > 250 mg/kg | 283 mg/kg | 14.4 mg/kg | – | – | –
CCC1(C)CC(=O)NC1=O (configuration not stated) | 341 mg/kg | 272 mg/kg | 136 mg/kg | 226 mg/kg | > 1000 mg/kg | 203 mg/kg | > 500 mg/kg | 167 mg/kg | > 500 mg/kg | – | 328 mg/kg | > 220 mg/kg | –
CCC1(c2ccccc2)C(=O)NC(=O)NC1=O | 45.5 mg/kg | 37.7 mg/kg | 13.9 mg/kg | 27.5 mg/kg | – | – | 8.26 mg/kg | 26.1 mg/kg | 51 mg/kg | 11.3 mg/kg | – | 2.61 mg/kg | 19.7 mg/kg
O=C1CN=C(c2ccccc2Cl)c2cc([N+](=O)[O-])ccc2N1 | 0.264 mg/kg | 0.039 mg/kg | 0.024 mg/kg | 0.074 mg/kg | 42.8 mg/kg | 0.03 mg/kg | 7.86 mg/kg | 0.607 mg/kg | 2.38 mg/kg | 25.5 mg/kg | 0.105 mg/kg | 0.67 mg/kg | 0.79 mg/kg
NC(=O)N1c2ccccc2C=Cc2ccccc21 | 45.4 mg/kg | > 50 mg/kg | > 50 mg/kg | 18.2 mg/kg | 11.9 mg/kg | 40.9 mg/kg | 5.35 mg/kg | > 250 mg/kg | 364 mg/kg | 7.81 mg/kg | 11.2 mg/kg | 4.05 mg/kg | 28.2 mg/kg
